The source of these data is patent publication US11293024B2, “Antisense antibacterial compounds and methods” (priority 2014, dated 2022).

The subject of this series is P. aeruginosa PAO1 biofilm. Nature of the series: Biofilm prevention in MBEC plate (crystal violet). Format: cell-based, Pseudomonas aeruginosa. Particulars: 5 μM PPMO, 2 μg/mL PMBN, MHII, 20 hours; one-way ANOVA p<0.0001. How it is done: P. aeruginosa PAO1 (5×10^5 cfu/mL) was grown in MHII media in an MBEC plate for 20 hours either alone or in the presence of 5 μM of the indicated PPMOs, PMBN alone, (RXR)4, or a scrambled PPMO. All conditions contained 2 μg/mL of PMBN unless indicated otherwise. Pegs were processed for crystal violet or visualized by microscopy at 20 hours. […] FIGS. 6B-6D: Spinning Disk confocal microscopy images of 20 hour biofilm treated with (FIG. 6B) No PPMO, (FIG. 6C) 5 μM Scr PPMO #41, (FIG. 6D) 5 μM RpsJ PPMO #14. PAO1 GFP is shown in green and biofilm is shown in red. The biofilm is stained with 200 μg/mL of Concanavalin A, Alexafluor 647 conjugate.
Pseudomonas aeruginosa Biofilm Prevention in MBEC Plate Protocol
• 1. 10 mL of MH is inoculated with a single colony and incubated at 37° C. and ˜250 rpm for about 5 hours. • 2. The sample is centrifuged for 10 minutes at ˜4000 rpm at 4° C., the supernatant is decanted and the pellet resuspended in 10 mL of 150 mM NaCl or PBS. This step is repeated to wash the pellet 3 times. • 3. The sample is resuspended in 10 mL 150 mM NaCl or PBS. • 4. The OD600 of the sample is taken and cfu/mL is calculated. (OD600 usually between 0.65-0.80). • 5. A Bacterial Working Solution (BWS) is made by inoculating 10 mL of MH to 5×10^5 cfu/mL final concentration. • 6. 2 μL/mL of 1 mg/mL stock PMBN is added to the BWS and vortexed 3 times. • 7. 1 mL of BWS is pipetted into each separate Eppendorf tube for each condition that is tested. • 8. An appropriate amount of PPMO is added to each Eppendorf tube and vortexed 3 times. • 9. Outside wells are filled with fresh MH, NaCl, or PBS to keep the outer pegs from drying out. • 10. One column of the MBEC plate is filled with 150 μL per well from each Eppendorf tube (one condition per column). • 11. Pegs are placed into the MBEC plate and the edges covered with a breathable membrane. • 12. The MBEC plate is incubated for 18-20 hours at 37° C. and 110 rpm. Day 2:
1. […] The final OD570 of the 10× dilution of solution should be approximately 0.500 absorbance. […]
2. OD reading: The OD570 for the 96-well plate from step 1e is determined. […]

“PPMO #14: RpsJ PMO GCATTTGACCT, 5′ TEG, 3′ (RXR)4XB CPP”: the “prevention of biofilm (crystal violet)” value is reported as “statistically significant prevention of biofilm”.
